# Key:
# [1] = system: HepG2 cells; assay: Absorption of dextran, CT-B or transferrin in HepG2 cells under specified treatments (flow cytometry), with or without wortmannin; assay type: cell-based
# Procedure: In the treatment of wortmannin, an inhibitor of macropinocytosis pathway, the HepG2 cells were treated with phosphate-buffered saline (PBS) or wortmannin at 37° C. for 15 minutes. After the administration of dextran, the cells were applied with 37° C. treatment, 42° C. treatment or mEHT treatment for 1 hour.
# The cells were analyzed by flow cytometry.
# [2] = system: HepG2 cells; assay: Absorption/retention of lipo-dox in HepG2 cells under specified treatments (flow cytometry, confocal microscopy); conditions: 37° C., 42° C. and mEHT treatments compared
compound,measurement,setting,value
transferrin,Absorption of transferrin by the cell compared with control group,"[1]; all treatment groups (37° C., 42° C. and mEHT), 5 μg/ml transferrin",enhanced absorption
"COc1cccc2c1C(=O)c1c(O)c3c(c(O)c1C2=O)C[C@@](O)(C(=O)CO)C[C@@H]3O[C@H]1C[C@H](N)[C@H](O)[C@H](C)O1 [dox, doxorubicin]",Enhancement of the absorption of dox without liposome encapsulation,[2],no obvious difference among the tested treatments
dextran,Absorption of dextran to the cells compared with control group,"[1]; all treatment groups (37° C., 42° C. and mEHT), 1 mg/ml dextran",enhanced absorption
same,Fluorescence signal of dextran in cells treated with mEHT,[1]; mEHT treatment versus 37° C. and 42° C. treatments,highest fluorescence signals
CT-B: particle about 100 nm used as tested drug for endocytosis uptake,Absorption of CT-B by the cell compared with control group,"[1]; all treatment groups (37° C., 42° C. and mEHT), 2 μg/ml CT-B",enhanced absorption

# Source: patent US20190183798A1, “METHOD FOR TREATING TUMOR” (Johnpro Biotech Inc., priority 2016, published 2019)
